Holding throughout (type): physicochemical
The nature of series [1]: Stability in solution as a function of pH. The settings on record: at acidic pH and at high pH. The text has this:
(§1) Brivanib alaninate is an ester compound that is formulated as a free base.
(§2) Its main degradation pathway at neutral and basic pH is hydrolysis to the parent compound, brivanib. Under acidic conditions, it can also undergo diaryl ether cleavage in solution as shown below.

The nature of series [2]: Stability of solid drug substance on storage. Particulars: stored at room temperature protected from moisture.
Excerpt: as §2

Series [3] can be described thus: Degradation of drug during wet granulation process. The settings on record: wet granulation process (water as processing aid). From the text: The use of wet granulation process for brivanib alaninate was not expected to be suitable because brivanib alaninate degrades by hydrolysis. Therefore, any person skilled in the art of pharmaceutical formulation would logically implement all measures to minimize the exposure of drug to water during handling, formulation, processing, and storage.
The manufacturing process of this formulation generally involves mixing the drug with dry powder excipients, such as with one or more binder, disintegrant, and filler. Water is then added to this premix while it is being continuously mixed in a mixer such as a high shear granulator. Alternatively, the binder may not be added as a dry powder to the premix, but dissolved in water. Addition of water with continuous mixing leads to the formation of granules, or granulation. The granules are then dried in dry, hot air using equipment and processes such as fluid bed drying or tray drying. Once dried, the granules may be milled using equipment such as comil or Fitzmil to reduce and/or reduce the width of distribution of particle size of granules. The granules are then mixed with extra-granular ingredients, which may include one or more of disintegrant, filler, glidant, and lubricant. The final blend is then compressed on a tablet press into core tablets. The core tablets may optionally be coated with a nonfunctional film coat.

Series [4] can be described thus: pKa of brivanib alaninate. The settings on record: free base.
Excerpt: as §1

Another series is described as follows: pH dependent solubility.
Excerpt: as §1

The term pKa denotes the pH at which an ionisable group is half protonated. Lower therefore signals a stronger acid or weaker base. As to `Cc1cc2c(F)c(Oc3ncnn4cc(OC[C@@H](C)OC(=O)[C@H](C)N)c(C)c34)ccc2[nH]1` [Brivanib alaninate, [(1R), 2S]-2-aminopropionic acid 2-[4-(4-fluoro-2-methyl-1H-indol-5-yloxy)-5-methylpyrrolo[2,1-f][1,2,4]triazin-6-yloxy]-1-methylethyl ester], in series [1], the degradation entry is on record as “degrades rapidly”. Further, in series [2], the “stability of solid drug substance” value was “acceptable stability”. Further, the “degradation of the drug by wet granulation” value in series [3] is listed as “did not really result in significant degradation”. In series [4], this molecule displayed a pKa of 6.9. Further, the solubility result in “pH dependent solubility” (acidic pH) is “increasing solubility”; in “pH dependent solubility” (neutral and basic pH), “limited solubility”.
